Results from patent US20230357099A1, “PYRAZOLO [3,4-B] PYRIDINE-4-CARBOXAMIDE NITRIFICATION INHIBITOR” (EUROCHEM ANTWERPTEN, priority 2020, published 2023).

Columns and labels:
agricultural soils = test: In soil nitrification inhibition assay; settings: Soil 2; for Nitrification inhibition (%) / inhibition at 100 µM: 7 days, 100 µM of each compound, 6 inhibitors alone and combined with Example 2; for inhibition at 50 µM / inhibition at 100 µM: soil; for inhibition at 50 µM: 50 µM of each compound; for inhibition at 100 µM: 168 h
Experimental: Top layer (0 to 10 cm) soil samples were collected from different fields in Belgium (Merelbeke, Sint-Laureins and Moorslede). Vegetation was removed and samples were taken from different plots. All soil samples were mixed and sieved (mesh size 2.8 mm) to filter large debris and homogenize soil. The soil was stored at 5° C. in plastic containers covered with Saran foil to prevent changes in microbial community composition and to maintain the original soil water content.
Soil water content was determined by drying 20 g soil for ≥ 48 h in a 60° C. oven and measuring weight before and after drying. Based on the soil water content (± 20%), compound solutions were prepared so that addition of 200 µl compound and 200 µl NH4Cl solution would result in a final compound concentration of 50 µM (unless otherwise stated) and a final NH4+ concentration of 10 mM. Per treatment, 5 small pots were filled with 20 g soil. Next, the soil was treated first with the respective compound solution and then with the NH4Cl solution. Per tray, positive (50 µM DMP) and negative controls (DMSO) were included. […] Demineralized water was added to the soil every 2 to 3 days to a soil weight of 20 g. In the end, each sample of 20 g soil was dissolved in 100 ml 1 M KCI and shaken for 1 hour, followed by filtration through Whatmann® paper. The filtrate was used to measure pH, NH4+ and NO3— concentrations. The nitrification percentage was calculated as the ratio of the consumed ammonium in treated soil versus the consumed ammonium in non-treated soil; the nitrification inhibition percentage was calculated as ‘100% - the nitrification percentage’.

[1] = tested on: Nitrososphaera viennensis; test: Nitrification inhibition assay on Nitrososphaera viennensis (nitrite, Griess); format: cell-based, Nitrososphaera viennensis EN76T; settings: Nitrososphaera viennensis; 2.5 µM compound; structural variants outside formula (I); read-out: Relative nitrification (%) by Nitrososphaera viennensis treated with 2.5 µM compound
In short: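 N. viennensis EN76T cultures in FWM (pH 7.5, NH4Cl-supplemented), 5× concentrated, treated with compounds at 2.5 µM final (0.25% DMSO) and incubated 24 h at 42 °C. Nitrite measured by Griess absorbance at 540 nm against a standard curve. Relative nitrification normalized between DMSO (no compound) and 100 µM PTIO controls.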

[2] = tested on: ABIL (ammonia-binding liquid inoculum), nitrifying microbial enrichment containing both AOA and AOB; test: Nitrification inhibition assay on ABIL (ammonium consumption); format: cell-based; settings: 10 µM compound; structural variants outside formula (I); read-out: Relative nitrification (%) by ABIL treated with 10 µM compound

Row | Compound | activity at 2.5 µM [1] [%] | activity at 10 µM [2] [%] | other results
1 | c1nc[nH]n1 [1,2,4-triazole, 1H-1,2,4-triazole] | – | – | Nitrification inhibition (%) (agricultural soils): 32%
2 | S=C1NCCS1 [1,3-thiazolidine-2-thione] | – | – | inhibition at 50 µM (agricultural soils; 120 h, 5 days): 59%; inhibition at 100 µM (agricultural soils): 46%
3 | N#CN=C(N)N [DCD, dicyandiamide] | – | – | Nitrification inhibition (%) (agricultural soils): 0%
4 | Cc1cn(C(CC(=O)O)C(=O)O)nc1C (centres unmarked) [DMPSA, 2-(3,4-dimethyl-pyrazol-1-yl)-succinic acid] | – | – | inhibition at 50 µM (agricultural soils; 72 h, 3 days): 47%; inhibition at 100 µM (agricultural soils): 44%
5 | CSCC(=O)Nc1ccc2[nH]ncc2c1 [Example 126] | 100 | 100 | –
6 | CCC(CC)C(CNC(=O)c1n[nH]c2ccccc12)N1CCOCC1 (centres unmarked) [Example 127] | 100 | 100 | –
7 | COCCCCCNC(=O)Nc1ccc2[nH]ncc2c1 [Example 128] | 100 | 100 | –
8 | O=C(O)CC1(CC(=O)Nc2ccc3cn[nH]c3c2)CCCCC1 [Example 129] | 100 | 100 | –
9 | c1cc(CNCCc2nc(C3CC3)cs2)c2[nH]ncc2c1 [Example 130] | 94 | 100 | –
10 | O=C(Nc1cccc2cn[nH]c12)c1csc(-c2ccccc2)n1 [Example 131] | 100 | 100 | –
11 | O=C(NC1CCc2ccccc21)c1n[nH]c2ccccc12 (centres unmarked) [Example 132] | 97 | 100 | –
12 | CC(C)CC(CNC(=O)c1n[nH]c2ccccc12)N1CCOCC1 (centres unmarked) [Example 133] | 100 | 100 | –
13 | COC1(C(=O)Nc2ccc(-n3ncc4ccccc43)cc2)CCOC1 (centres unmarked) [Example 134] | 100 | 100 | –
14 | CS(=O)(=O)c1ccc(-c2noc(-c3cccc4[nH]ncc34)n2)cc1 [Example 135] | 100 | 100 | –
15 | O=C(NCCCSc1ccccc1)c1n[nH]c2ccccc12 [Example 136] | 96 | 100 | –
16 | O=C(Nc1ccc(C(=O)Nc2cccc3cn[nH]c23)cc1)c1ccccc1 [Example 137] | 98 | 100 | –
17 | CC(NC(=O)C1(NC(=O)c2ccc3[nH]ncc3c2)CCCC1)C1CC1 (centres unmarked) [Example 138] | 100 | 100 | –
18 | O=S(=O)(Nc1n[nH]c2ccccc12)c1ccccc1C(F)(F)F [Example 139] | 97 | 100 | –
19 | CC(C)n1ncc2ccc(NC(=O)NC3CCN(C)C3=O)cc21 (centres unmarked) [Example 140] | 100 | 100 | –
20 | O=C(c1n[nH]c2ccccc12)N1CCc2ccc(F)cc21 [Example 141] | 93 | 100 | –
21 | O=C(NCC1CCCO1)c1n[nH]c2ccc(Br)cc12 (centres unmarked) [Example 142] | 100 | 100 | –
22 | CC(CNC(=O)c1cccc2cn[nH]c12)CC1(C)OCCO1 (centres unmarked) [Example 143] | 100 | 100 | –
23 | COCCn1ncc2ccc(NS(=O)(=O)c3ccc4c(c3)CCC4)cc21 [Example 144] | 100 | 100 | –
